Results taken from patent US11998610B2, “Conjugates and methods of using the same” (Flagship Pioneering Innovations V, Inc., priority 2018, dated 2024).
Non-standard residues stand in square brackets, D forms with d. Residues, ends and D or L forms follow the SMILES beside them. *: point of attachment. Bz = O=C(c1ccccc1)*

What was measured:
[1] = In vitro Colonic Material Stability Assay; assay type: in vitro ADME; details: colonic material slurry, anaerobic, 1 or 10 μM, 24 h
Description: Assay 3 In vitro Colonic Material Stability Assay. This assay was used to assess the stability of an acylated active agent in a large intestine. All experiments were performed in an anaerobic chamber containing 90% nitrogen, 5% hydrogen and 5% carbon dioxide. Colonic material was resuspended as a slurry (15% w/v final concentration) in pre-reduced, anaerobically sterilized dilution blanks (Anaerobe Systems AS-908). The colonic material was then inoculated into 96 well plates containing YCFAC media (Anaerobe Systems AS-680) or other suitable media (6.7 μL slurry into 1 mL total media). Compounds or groups of compounds were added to each individual well to reach a final analyte concentration of 1 or 10 μM, and the material was mixed by pipetting. Sample was removed after set timepoints (0, 120, 240, 480, 1440, 2880 minutes after initiation of the assay), quenched with acetonitrile containing internal standard, and analyzed by LC/MS.

WT ClbP = assay: Assay with purified ClbP protein (LCMS); assay type: biochemical, E. coli; details: 20 μM WT ClbP, 100 μM compound, room temperature, 24 h
Description: This example is representative of the method described in Example 91 the soluble peptidase domain (amino acids 38 to 375) of ClbP or the catalytically inert mutant S95A was cloned into pET28a using previously defined boundaries as a starting point (Brotherton, J. Am. Chem. Soc., 135:3359-3362, 2013).
WT ClbP or S95A ClbP was isolated as an N-terminally tagged HiS6-SUMO1-fusion protein from […] using E. coli BL21(DE3)RIPL to express the protein. The cells were lysed in 30 mM Tris pH 8.0, 300 mM NaCl, 10% (v/v) glycerol, benzonase (Sigma-Millipore), lysozyme, B-per (ThermoFisher), and Y-per (ThermoFisher). The lysate was clarified via centrifugation (13,000 g, 20 min), and the supernatant was incubated with HiBond Ni-NTA agarose (5 mL). The resin was subsequently washed with wash buffer (30 mM Tris pH 7.5, 250 mM NaCl, 10 mM imidazole, 3% (v/v) glycerol, and 2 mM TCEP). The resin was incubated at 30° C. for 1 h with 1.4 mg ULP1 protease. The resin was then washed with an additional fraction of wash buffer. Centrifuge filtration was used to concentrate the protein, and the concentrated protein was subsequently applied to a 16/600 Superdex 200 size exclusion column with an isocratic elution of 25 mM HEPES, 25 mM Tris pH 7.4, 325 mM NaCl, 10 mM KCl and 3% (v/v) glycerol at a flow rate of […]. The fractions containing the protein were determined by SDS-PAGE, combined, and concentrated by centrifuge filtration. 3 mM TCEP was added to the concentrated protein, which was then aliquoted, flash frozen in liquid N2, and stored at −80° C.
This example is representative of the method described in Example D, ClbP was incubated with test compounds in an in vitro assay. In a typical assay, 0, 1, or 20 μM purified WT or S95A ClbP was incubated with 100 or 500 μM compound in reaction buffer (50 mM Tris-HCl pH 7.5, 37.5 mM NaCl) at room temperature for 24 h. The total volume of this reaction was 150 μL.
After 24 h, 2 volumes of acetonitrile (300 μL) were added to the reaction to quench the solution.
The reaction was centrifuged (4,000 g, 15 min), and then the supernatant was analyzed by LCMS. 5 μL of the supernatant was injected onto an Acquity UPLC BEH C18 1.7 μm 2.1×100 column. Buffer A was 0.1% (v/v) formic acid in water and buffer B was 0.1% (v/v) formic acid in acetonitrile. The flow rate was 0.5 mL/min. The initial % B was 10, which was held for 30 s then ramped up to 90% B over 3 min, held at 90% B for 1 min, ramped down to 10% B over 15 s, and then held at 10% B for 15 s. The UV-Vis spectrum from 210-400 nm was monitored with 3.6 nm resolution. Positive and negative mode ESI were monitored from 100-1000 m/z with a 20 V cone voltage at 5 Hz sampling frequency in centroid collection.
The relative starting material remaining in the WT ClbP reaction was determined by LCMS and then compared to the residual starting material in the no-enzyme and catalytically inert enzyme (S95A ClbP) reactions. In an ideal case, the amount of residual starting material in the WT ClbP reaction was <25% of the amount in the S95A ClbP and no-enzyme conditions. In an acceptable case, the amount of residual starting material in the WT ClbP reaction was 25-75% of the amount in the S95A ClbP and no-enzyme conditions. In a non-preferred case, the amount of residual starting material in the WT ClbP reaction was >75% of the amount in the S95A ClbP and no-enzyme conditions.
Formation of the anticipated product was likewise quantified by LCMS analysis and confirmed by coelution with an external product standard. In an ideal case, the amount of product formed in the WT ClbP reaction corresponded to >75% of the theoretical maximum. In an acceptable case, the amount of product formed in the WT ClbP reaction corresponded to 25-75% of the theoretical maximum. In a non-preferred case, the amount of product formed in the WT ClbP reaction corresponded to <25% of the theoretical maximum.

E. coli BL21(DE3) = assay: Cell-based assay with ClbP with LCMS, ClbP negative strain; details: 10 μM compound, 37° C., 20 h
How it was run: (§1)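 Compound (10 μM final) incubated 20 h at 37° C, aerobically, with 1:40-diluted overnight cultures of ClbP-positive E. coli or negative BL21(DE3), in duplicate, alongside uninoculated LB. Remaining parent quantified by LC-MS/MS (MRM) after acetonitrile quench, expressed as percent of media-alone.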

[2] = tested on: E. coli CFT073 ATCC 700928 and/or E. coli Nissle 1917; assay: Cell-based assay with ClbP with LCMS, ClbP positive strain; details: for % Remaining in ClbP Positve Relative to Media-Only: ClbP-encoding E. coli, 10 μM compound, 37° C., 20 h
How it was run: as §1

[3] = Stability of conjugates in Simulated Gastric Fluid (SGF); assay type: in vitro ADME; details: simulated gastric fluid pH 1.6 with pepsin, 1 μM, 37° C.
Description: Assay 1. Stability of conjugates in Simulated Gastric Fluid (SGF). This assay was used to assess the stability of a conjugate in a stomach. Medium was prepared by dissolving 2 g of sodium chloride in 0.6 L in ultrapure water (MilliQ®, Millipore Sigma, Darmstadt, Germany). The pH was adjusted to 1.6 with 1N hydrochloric acid, and the volume was then adjusted to 1 L with purified water. 60 mg FaSSIF powder (Biorelevant™, London, UK) were dissolved in 500 mL buffer (above). Pepsin was added (0.1 mg/mL) (Millipore Sigma, Darmstadt, Germany), and the solution was stirred. The resulting SGF media were used fresh for each experiment. Test compounds were dissolved in DMSO stock to 1 mM. An aliquot of the DMSO stock solution was removed and diluted in the SGF Media in 15 mL falcon tubes to generate a total compound concentration of 1 μM. A 1 mL aliquot was immediately removed and diluted once with 1 volume of acetonitrile for T0 timepoint. The mixture was sealed and mixed at 37° C. in an incubator. Aliquots (1 mL) were removed at regular intervals and immediately quenched by the addition of 1 volume of acetonitrile. The resulting samples were analyzed by LC/MS to determine degradation rates in SGF.

[4] = Stability of conjugates in Simulated Intestinal Fluid (SIF); assay type: in vitro ADME; details: simulated intestinal fluid pH 6.7 with pancreatin, 1 μM, 37° C.
Description: Assay 2. Stability of conjugates in Simulated Intestinal Fluid (SIF). This assay was used to assess the stability of a conjugate in a small intestine. Phosphate buffer was prepared by dissolving 0.42 g of sodium hydroxide pellets and 3.95 g of monobasic sodium phosphate monohydrate and 6.19 g of sodium chloride in ultrapure water (MilliQ®, Millipore Sigma, Darmstadt, Germany). The pH was adjusted to 6.7 using aq. HCl and aq. NaOH, as necessary, and the solution was diluted with ultrapure water to produce 1 L of the pH 6.7 buffer. 112 mg FaSSIF powder (Biorelevant™, London, UK) was dissolved in 50 mL of the pH 6.7 buffer. 2 to 3 mL of the resulting solution were then added to 500 mg pancreatin (Millipore Sigma, Darmstadt, Germany). The resulting mixture was agitated by finger tapping the vessel containing the mixture until milky suspension formed. At this time, the remainder of the 50 mL FaSSiF/pH 6.7 buffer solution was added. The resulting suspension was flipped upside down 10 times to produce SIF, which was used fresh. Test compounds were dissolved in DMSO stock to 1 mM. An aliquot of the DMSO stock solution was removed and diluted in the SIF media in 15 mL falcon tubes to produce a mixture with a tested compound concentration of 1 μM. A 1 mL aliquot was immediately removed and diluted once with 1 volume of acetonitrile for T0 timepoint. The mixture was sealed and agitated at 37° C. in an incubator. Aliquots (1 mL) were removed at regular intervals and immediately quenched by the addition of 1 volume of acetonitrile. The resulting samples were analyzed by LC/MS to determine degradation rates

In the case of COC(=O)[C@H](C)NC(=O)[C@@H](CC(N)=O)NC(=O)c1ccccc1 [Example 13, Methyl benzoyl-D-asparaginyl-L-alaninate] (Bz-[dN]-Ala-OMe), the “Assay 3 (% Remaining at 24 h)” value [1] is reported as “C (>75% of the tested compound remaining)”, the “Status (compound remaining in WT ClbP reaction relative to no-enzyme control)” value (WT ClbP) is reported as “++ (<25% compound remaining in the 20 μM WT ClbP reaction relative to the control)” and the “% Remaining in ClbP Negative Relative to Media-Only” value (E. coli BL21(DE3)) is reported as “+ (between 25-75% compound remaining in the 20 μM WT ClbP reaction relative to the no-enzyme control)”. For the same compound, the “% Remaining in ClbP Positve Relative to Media-Only” value [2] was “++ (<25% compound remaining in the 20 μM WT ClbP reaction relative to the control)” and the “Difference between the ClbP Positive and ClbP Negative release profiles” value ([2]; conclusion from Table 4) was “particularly favorable difference”.

In the case of CCCCCCCC(=O)N[C@H](CC(N)=O)C(=O)N[C@@H](C)CCC(=O)O[C@]1(CC)C(=O)OCc2c1cc1n(c2=O)Cc2c-1nc1ccc(O)cc1c2CC [Example 49, (S)-4,11-diethyl-9-hydroxy-3,14-dioxo-3,4,12,14-tetrahydro-1H-pyrano[3′,4′:6,7]indolizino[1,2-b]quinolin-4-yl (S)-4-((R)-4-amino-2-octanamido-4-oxobutanamido)pentanoate], the “Assay 1 (SGF) (% Remaining @ 1 hours)” value [3] is reported as “C (>75% of the tested compound remaining)”, the “Assay 2 (SIF) (% @ Remaining 4 hours)” value [4] is reported as “C (>75% of the tested compound remaining)” and the “Assay 3 (% Remaining at 24 h)” value [1] is reported as “C (>75% of the tested compound remaining)”. For the same compound, the “% Remaining in ClbP Negative Relative to Media-Only” value (E. coli BL21(DE3)) was “+ (between 25-75% compound remaining in the 20 μM WT ClbP reaction relative to the no-enzyme control)” and the “% Remaining in ClbP Positve Relative to Media-Only” value [2] was “++ (<25% compound remaining in the 20 μM WT ClbP reaction relative to the control)”.

With COCCOCCC(=O)N[C@H](CC(N)=O)C(=O)N[C@@H](C)C(=O)OC [Example 61, Methyl (3-(2-methoxyethoxy)propanoyl)-D-asparaginyl-L-alaninate] the “Assay 1 (SGF) (% Remaining @ 1 hours)” value [3] was “C (>75% of the tested compound remaining)”, the “Assay 2 (SIF) (% @ Remaining 4 hours)” value [4] was “B (25-75% of the tested compound remaining)” and the “Assay 3 (% Remaining at 24 h)” value [1] was “C (>75% of the tested compound remaining)”. The “% Remaining in ClbP Negative Relative to Media-Only” value (E. coli BL21(DE3)) was “− (>75% compound remaining in the 20 μM WT ClbP reaction relative to the no-enzyme control)” and the “% Remaining in ClbP Positve Relative to Media-Only” value [2] was “+ (between 25-75% compound remaining in the 20 μM WT ClbP reaction relative to the no-enzyme control)”.

With CCCCCCCC(=O)N[C@H](CC(N)=O)C(=O)NCCCC(=O)OC [Example 43, Methyl (R)-4-(4-amino-2-octanamido-4-oxobutanamido)butanoate] the “Assay 1 (SGF) (% Remaining @ 1 hours)” value [3] was “B (25-75% of the tested compound remaining)”, the “Assay 2 (SIF) (% @ Remaining 4 hours)” value [4] was “B (25-75% of the tested compound remaining)” and the “Assay 3 (% Remaining at 24 h)” value [1] was “B (25-75% of the tested compound remaining)”. The “% Remaining in ClbP Negative Relative to Media-Only” value (E. coli BL21(DE3)) was “− (>75% compound remaining in the 20 μM WT ClbP reaction relative to the no-enzyme control)” and the “% Remaining in ClbP Positve Relative to Media-Only” value [2] was “− (>75% compound remaining in the 20 μM WT ClbP reaction relative to the no-enzyme control)”.

For COC(=O)[C@H](C)NC(=O)[C@@H](CC(N)=O)NC(=O)c1ccccc1O [Example 16, Methyl (2-hydroxybenzoyl)-D-asparaginyl-L-alaninate], the “Assay 1 (SGF) (% Remaining @ 1 hours)” value [3] was “C (>75% of the tested compound remaining)”, the “Assay 2 (SIF) (% @ Remaining 4 hours)” value [4] was “A (<25% of the tested compound remaining)” and the “Assay 3 (% Remaining at 24 h)” value [1] was “B (25-75% of the tested compound remaining)”. The “% Remaining in ClbP Negative Relative to Media-Only” value (E. coli BL21(DE3)) was “+ (between 25-75% compound remaining in the 20 μM WT ClbP reaction relative to the no-enzyme control)” and the “% Remaining in ClbP Positve Relative to Media-Only” value [2] was “+ (between 25-75% compound remaining in the 20 μM WT ClbP reaction relative to the no-enzyme control)”.
